Data reported in ChEMBL document CHEMBL1126367, “The discovery of a novel calcium channel blocker related to the structure of potassium channel opener cromakalim” (Bioorg Med Chem Lett, 1992).
Values belong to the molecule of their own block, whether it stands above or below them.

Experiments:
Rattus norvegicus [1] = assay: Compound was evaluated for the antihypertensive activity at a dose of 45 umol/kg given orally; No significant effect on blood pressure.; format: functional, organism-based
Rattus norvegicus [2] = species: Rattus norvegicus; assay: Vasorelaxant potency by relaxation of the methoxamine contracted rat aorta; format: functional
Cavia porcellus [3] = species: Cavia porcellus; assay: Percent inhibition of inward calcium current by 100 uM of the compound; format: functional; parameters: scale not given: the % may be the effect or the level left
Cavia porcellus [4] = species: Cavia porcellus; assay: Percent inhibition of inward calcium current by 10 uM of the compound; format: functional; parameters: scale not given: the % may be the effect or the level left
Cavia porcellus [5] = species: Cavia porcellus; assay: Percent inhibition of inward calcium current by 50 uM of the compound; format: functional; parameters: scale not given: the % may be the effect or the level left
Rattus norvegicus [6] = assay: The compound was evaluated for the antihypertensive activity at a dose of 45 umol/kg given orally; format: functional
Rattus norvegicus [7] = assay: Compound was evaluated for the antihypertensive activity at a dose of 45 umol/kg given orally; No significant effect on blood pressure; format: functional, organism-based
Rattus norvegicus [8] = assay: The compound was evaluated for the antihypertensive activity at a dose of 45 umol/kg given orally.; format: functional

IC50 (Rattus norvegicus [2]): 0.44 µM
SMILES: CC1(C)Oc2c(c(=O)n(Cc3ccccc3)c3ccccc23)[C@@H](N2CCCC2=O)[C@@H]1O
IC50 (Rattus norvegicus [1]): Not Active
Activity (Cavia porcellus [3]): 55%
Activity (Cavia porcellus [4]): 30%
Activity (Cavia porcellus [5]): 46%

SMILES: CC1(C)Oc2ccc(C#N)cc2[C@@H](N2CCCC2=O)[C@@H]1O [CROMAKALIM]
Activity (Rattus norvegicus [6]): 63%

IC50 (Rattus norvegicus [2]): 2.38 µM
SMILES: COc1ccc([C@@H]2Sc3ccccc3N(CCN(C)C)C(=O)[C@@H]2OC(C)=O)cc1 [DILTIAZEM]
IC50 (Rattus norvegicus [7]): Not Active

SMILES: COC(=O)C1=C(C)NC(C)=C(C(=O)OC)C1c1ccccc1[N+](=O)[O-] [NIFEDIPINE]
Activity (Rattus norvegicus [8]): 33%
IC50 (Rattus norvegicus [2]): 0.004 µM
